Reference: ChEMBL document CHEMBL5724914, “Linking interpersonal differences in gut microbiota composition and drug biotransformation activity” (2024)

Experiments:
[1] = (§1) The drug is tested on Z-030 corresponding to mouse gut metagenome with ENA study accession number: PRJEB37062 and ENA sample accession number: ERS12561829 for biotransformation under anaerobic condition. The drug concentrations were measured over 9 timepoints collected between 0 and 24 hours of incubation by liquid-chromatography-coupled mass spectrometry (LC–MS); conditions: 2 µM
[2] = as §1, with “Z-027” for “Z-030”, “to” for “to mouse gut”, “ERS12561826” for “ERS12561829”; conditions: 2 µM
[3] = as §1, with “Z-017” for “Z-030”, “ERS12561816” for “ERS12561829”; conditions: 2 µM
[4] = as §1, with “Z-012” for “Z-030”, “to” for “to mouse gut”, “ERS12561812” for “ERS12561829”; conditions: 2 µM
[5] = as §1, with “Z-010” for “Z-030”, “to” for “to mouse gut”, “ERS12561810” for “ERS12561829”; conditions: 2 µM
[6] = as §1, with “Z-008” for “Z-030”, “to” for “to mouse gut”, “ERS12561808” for “ERS12561829”; conditions: 2 µM
[7] = as §1, with “Z-007” for “Z-030”, “rat” for “mouse”, “ERS12561807” for “ERS12561829”; conditions: 2 µM
[8] = as §1, with “Z-005” for “Z-030”, “to” for “to mouse gut”, “ERS12561805” for “ERS12561829”; conditions: 2 µM
[9] = as §1, with “WLS-350” for “Z-030”, “human” for “mouse”, “ERS12561789” for “ERS12561829”; conditions: 2 µM
[10] = as §1, with “WLS-077” for “Z-030”, “human” for “mouse”, “ERS12561750” for “ERS12561829”; conditions: 2 µM
[11] = as §1, with “WLS-073” for “Z-030”, “human” for “mouse”, “ERS12561749” for “ERS12561829”; conditions: 2 µM
[12] = as §1, with “WLS-052” for “Z-030”, “human” for “mouse”, “ERS12561747” for “ERS12561829”; conditions: 2 µM
[13] = as §1, with “WLS-038” for “Z-030”, “human” for “mouse”, “ERS12561745” for “ERS12561829”; conditions: 2 µM
[14] = human gut metagenome, 24 h, 2 µM
[15] = human gut metagenome, 24 h, 2 µM; remark: listed apart in the source
[16] = human gut metagenome, 24 h, 2 µM; remark: listed apart in the source
[17] = human gut metagenome, 24 h, 2 µM; remark: listed apart in the source
[18] = human gut metagenome, 24 h, 2 µM; remark: listed apart in the source
[19] = human gut metagenome, 24 h, 2 µM; remark: listed apart in the source
[20] = human gut metagenome, 24 h, 2 µM; remark: listed apart in the source
Also: call rule not given here.

Row | Compound | Bacterial Biotransformation [1] | Bacterial Biotransformation [2] | Bacterial Biotransformation [3] | Bacterial Biotransformation [4] | Bacterial Biotransformation [5] | Bacterial Biotransformation [6] | Bacterial Biotransformation [7] | Bacterial Biotransformation [8] | Bacterial Biotransformation [9] | Bacterial Biotransformation [10] | Bacterial Biotransformation [11] | Bacterial Biotransformation [12] | Bacterial Biotransformation [13] | Bacterial Biotransformation [14] | Bacterial Biotransformation [15] | Bacterial Biotransformation [16] | Bacterial Biotransformation [17] | Bacterial Biotransformation [18] | Bacterial Biotransformation [19] | Bacterial Biotransformation [20]
1 | CCCCC(=O)N(Cc1ccc(-c2ccccc2-c2nnn[nH]2)cc1)[C@H](C(=O)O)C(C)C | Compound NOT metabolized | Compound NOT metabolized | Compound NOT metabolized | Compound NOT metabolized | Compound NOT metabolized | Compound NOT metabolized | Compound NOT metabolized | Compound NOT metabolized | Compound metabolized | Compound metabolized | Compound NOT metabolized | Compound metabolized | Compound metabolized | Compound metabolized | Compound metabolized | Compound metabolized | Compound metabolized | Compound metabolized | Compound metabolized | Compound NOT metabolized
2 | CC(O)(CS(=O)(=O)c1ccc(F)cc1)C(=O)Nc1ccc(C#N)c(C(F)(F)F)c1 (configuration not stated) [BICALUTAMIDE] | Compound NOT metabolized | Compound NOT metabolized | Compound NOT metabolized | Compound NOT metabolized | Compound NOT metabolized | Compound NOT metabolized | Compound NOT metabolized | Compound NOT metabolized | Compound NOT metabolized | Compound NOT metabolized | – | Compound NOT metabolized | Compound NOT metabolized | Compound NOT metabolized | Compound NOT metabolized | Compound NOT metabolized | Compound NOT metabolized | Compound NOT metabolized | Compound NOT metabolized | Compound NOT metabolized
3 | OCCN1CCN(CCCN2c3ccccc3Sc3ccc(C(F)(F)F)cc32)CC1 [FLUPHENAZINE] | Compound NOT metabolized | Compound NOT metabolized | Compound NOT metabolized | Compound metabolized | Compound metabolized | Compound NOT metabolized | Compound NOT metabolized | Compound metabolized | Compound metabolized | – | Compound metabolized | Compound metabolized | Compound metabolized | Compound metabolized | Compound NOT metabolized | Compound NOT metabolized | Compound metabolized | Compound metabolized | Compound metabolized | Compound NOT metabolized
4 | CO[C@]12C[C@@H](COC(=O)c3cncc(Br)c3)CN(C)[C@@H]1Cc1cn(C)c3cccc2c13 [NICERGOLINE] | Compound NOT metabolized | Compound metabolized | Compound NOT metabolized | Compound NOT metabolized | Compound metabolized | Compound NOT metabolized | Compound NOT metabolized | Compound metabolized | Compound NOT metabolized | – | Compound metabolized | Compound metabolized | Compound NOT metabolized | Compound NOT metabolized | Compound NOT metabolized | Compound metabolized | Compound NOT metabolized | Compound NOT metabolized | Compound metabolized | Compound NOT metabolized
